Reference: patent US10688200B2, “Urea-based prostate specific membrane antigen (PSMA) inhibitors for imaging and therapy” (Five Eleven Pharma Inc., priority 2015, dated 2020)

Columns and labels:
PSMA [1] = biological target: T1, PSMA (Homo sapiens, UniProt Q04609); assay: In vitro binding signals of 68Ga labeled ligands in LNCaP tumor homogenates; conditions: Ga-68 radiolabeled ligands; for Total binding (TB): 37° C. 60 min; for Nonspecific binding (NSB): with 1a (PSMA11) 10 μM
T1 construct: 100 μL of freshly harvested PSMA cells; endogenous in cells; host or cells: 'PSMA cells' in the method

PSMA [2] = biological target: T1, PSMA; assay: In vitro competitive binding assay to determine IC50 to PSMA; conditions: LNCaP cells, [125I]MIP-1095 radioligand, 37° C. 1 h, mean±SD (n=4); read-out: PSMA binding affinities of cold ligands, IC50
Experimental: In Vitro Competitive Binding Assay to Determine IC50 to PSMA
In order to determine the binding affinity, in vitro competitive binding assays were performed. The LNCaP cells were incubated with 150,000 cpm of [^125I]MIP-1095 in the presence of 10 different concentrations of competing drugs. After incubation at 37° C. for 1 h, the bound and free radioactivity were separated by vacuum filtration through GF/B filter paper using a Brandel M-24R cell harvester followed by washing twice. Non-specific binding was defined with 10 μM PMPA. The cell bound radioactivity was measured with a gamma counter, 2470 Wizard^2 (Perkin-Elmer, IL). The IC50 values were calculated by fitting the data using a nonlinear regression algorithm (GraphPad Software).
The PSMA binding affinities were determined in a competitive binding assay using LNCaP human prostate carcinoma cells and the known high affinity PSMA ligand, [^125I]MIP-1095 as the radioligand. Data are expressed as mean±SD (n=4).

T1 sequence (Q04609 whole entry): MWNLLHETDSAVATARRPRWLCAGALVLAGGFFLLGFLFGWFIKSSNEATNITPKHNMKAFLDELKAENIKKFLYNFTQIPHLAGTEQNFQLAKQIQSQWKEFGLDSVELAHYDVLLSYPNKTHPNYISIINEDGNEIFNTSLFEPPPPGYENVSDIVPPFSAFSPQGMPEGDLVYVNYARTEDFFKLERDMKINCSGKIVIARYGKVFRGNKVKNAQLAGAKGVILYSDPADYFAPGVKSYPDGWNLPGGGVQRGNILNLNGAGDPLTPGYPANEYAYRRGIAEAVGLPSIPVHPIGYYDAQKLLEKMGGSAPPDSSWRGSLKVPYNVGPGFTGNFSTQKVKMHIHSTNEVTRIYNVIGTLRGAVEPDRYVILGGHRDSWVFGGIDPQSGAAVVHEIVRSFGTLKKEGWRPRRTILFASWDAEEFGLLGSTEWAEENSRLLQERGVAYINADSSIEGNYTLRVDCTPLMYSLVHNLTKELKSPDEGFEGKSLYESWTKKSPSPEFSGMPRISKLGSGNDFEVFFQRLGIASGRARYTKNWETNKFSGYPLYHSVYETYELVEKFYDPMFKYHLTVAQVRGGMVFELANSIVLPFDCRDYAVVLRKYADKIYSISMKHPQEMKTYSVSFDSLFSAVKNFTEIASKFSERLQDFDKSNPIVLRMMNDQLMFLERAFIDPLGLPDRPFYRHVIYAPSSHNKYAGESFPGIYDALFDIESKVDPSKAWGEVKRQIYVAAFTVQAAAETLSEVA

O=C(O)CC[C@H](NC(=O)N[C@@H](CCCCNC(=O)CCCCCNC(=O)CCc1ccc(O)c(CN(CCN(CC(=O)O)Cc2cc(CCC(=O)N[C@H]3C(O)O[C@H](CO)[C@@H](O)[C@@H]3O)ccc2O)CC(=O)O)c1)C(=O)O)C(=O)O (stereo partly drawn) [Compound 1b, (3S,7S)-22-(3-(((Carboxymethyl)(2-((carboxymethyl)(2-hydroxy-5-(3-oxo-3-(((3R,4R,5S,6R)-2,4,5-trihydroxy-6-(hydroxymethyl)tetrahydro-2H-pyran-3-yl)amino)propyl)benzyl)amino)ethyl)amino)methyl)-4-hydroxyphenyl)-5,13,20-trioxo-4,6,12,19-tetraazadocosane-1,3,7-tricarboxylic acid]
Specific binding (SB) SB = TB − NSB (PSMA [1]): 8.8
Total binding (TB) (PSMA [1]): 10.8
Nonspecific binding (NSB) (PSMA [1]): 2.0
IC50 (PSMA [2]): 53.3 ± 30.9 nM

O=C(O)CC[C@H](NC(=O)N[C@@H](CCCCNC(=O)CCCCCNC(=O)CCc1ccc(O)c(CN(CCN(CC(=O)O)Cc2cc(CCC(=O)NCC(=O)O)ccc2O)CC(=O)O)c1)C(=O)O)C(=O)O [Compound 1c, (3S,7S)-22-(3-(((Carboxymethyl)(2-((carboxymethyl)(5-(3-((carboxymethyl)amino)-3-oxopropyl)-2-hydroxybenzyl)amino)ethyl)amino)methyl)-4-hydroxyphenyl)-5,13,20-trioxo-4,6,12,19-tetraazadocosane-1,3,7-tricarboxylic acid]
Specific binding (SB) SB = TB − NSB (PSMA [1]): 11.8
Total binding (TB) (PSMA [1]): 13.4
Nonspecific binding (NSB) (PSMA [1]): 1.6
IC50 (PSMA [2]): 25.6 ± 9.4 nM

C[C@H](NC(=O)CCc1ccc(O)c(CN(CCN(CC(=O)O)Cc2cc(CCC(=O)NCCCCCC(=O)NCCCC[C@H](NC(=O)N[C@@H](CCC(=O)O)C(=O)O)C(=O)O)ccc2O)CC(=O)O)c1)C(=O)O [Compound 1d, (3S,7S)-22-(3-(((2-((5-(3-(((S)-1-Carboxyethyl)amino)-3-oxopropyl)-2-hydroxybenzyl)(carboxymethyl)amino)ethyl)(carboxymethyl)amino)methyl)-4-hydroxyphenyl)-5,13,20-trioxo-4,6,12,19-tetraazadocosane-1,3,7-tricarboxylic acid]
Specific binding (SB) SB = TB − NSB (PSMA [1]): 11.2
Total binding (TB) (PSMA [1]): 12.6
Nonspecific binding (NSB) (PSMA [1]): 1.4
IC50 (PSMA [2]): 26.8 ± 6.3 nM

O=C(O)CC[C@H](NC(=O)N[C@@H](CCCCNC(=O)CCCCCNC(=O)CCc1ccc(O)c(CN(CCN(CC(=O)O)Cc2cc(CCC(=O)N[C@@H](CC(=O)O)C(=O)O)ccc2O)CC(=O)O)c1)C(=O)O)C(=O)O [Compound 1e, (3S,7S)-22-(3-(((Carboxymethyl)(2-((carboxymethyl)(5-(3-(((S)-1,2-dicarboxyethyl)amino)-3-oxopropyl)-2-hydroxybenzyl)amino)ethyl)amino)methyl)-4-hydroxyphenyl)-5,13,20-trioxo-4,6,12,19-tetraazadocosane-1,3,7-tricarboxylic acid]
Specific binding (SB) SB = TB − NSB (PSMA [1]): 13.2
Total binding (TB) (PSMA [1]): 14.8
Nonspecific binding (NSB) (PSMA [1]): 1.6
IC50 (PSMA [2]): 29.5 ± 11 nM

O=C(O)CC[C@H](NC(=O)CCc1ccc(O)c(CN(CCN(CC(=O)O)Cc2cc(CCC(=O)NCCCCCC(=O)NCCCC[C@H](NC(=O)N[C@@H](CCC(=O)O)C(=O)O)C(=O)O)ccc2O)CC(=O)O)c1)C(=O)O [Compound 1f, (3S,7S)-22-(3-(((Carboxymethyl)(2-((carboxymethyl)(5-(3-(((S)-1,3-dicarboxypropyl)amino)-3-oxopropyl)-2-hydroxybenzyl)amino)ethyl)amino)methyl)-4-hydroxyphenyl)-5,13,20-trioxo-4,6,12,19-tetraazadocosane-1,3,7-tricarboxylic acid]
Specific binding (SB) SB = TB − NSB (PSMA [1]): 12.0
Total binding (TB) (PSMA [1]): 13.5
Nonspecific binding (NSB) (PSMA [1]): 1.5
IC50 (PSMA [2]): 37.2 ± 18.6 nM

O=C(O)CC[C@H](NC(=O)N[C@@H](CCCCNC(=O)CCCCCNC(=O)CCc1ccc(O)c(CN(CCN(CC(=O)O)Cc2cc(CCC(=O)NCCNC(=O)CN3CCN(CC(=O)O)CCN(CC(=O)O)CCN(CC(=O)O)CC3)ccc2O)CC(=O)O)c1)C(=O)O)C(=O)O [Compound 1g, (3S,7S)-22-(3-(((carboxymethyl)(2-((carboxymethyl)(2-hydroxy-5-(3-oxo-3-((2-(2-(4,7,10-tris(carboxymethyl)-1,4,7,10-tetraazacyclododecan-1-yl)acetamido)ethyl)amino)propyl)benzyl)amino)ethyl)amino)methyl)-4-hydroxyphenyl)-5,13,20-trioxo-4,6,12,19-tetraazadocosane-1,3,7-tricarboxylic acid]
Specific binding (SB) SB = TB − NSB (PSMA [1]): 9.0
Total binding (TB) (PSMA [1]): 10.5
Nonspecific binding (NSB) (PSMA [1]): 1.5
IC50 (PSMA [2]): 70.2 ± 29.1 nM

O=C(O)CCc1ccc(O)c(CN(CCN(CC(=O)O)Cc2nc(CCC(=O)NCCCCCC(=O)NCCCC[C@H](NC(=O)N[C@@H](CCC(=O)O)C(=O)O)C(=O)O)ccc2O)CC(=O)O)n1 [Compound 2, (3S,7S)-22-(6-(((2-(((6-(2-Carboxyethyl)-3-hydroxypyridin-2-yl)methyl) (carboxymethyl)amino)ethyl)(carboxymethyl)amino)methyl)-5-hydroxypyridin-2-yl)-5,13,20-trioxo-4,6,12,19-tetraazadocosane-1,3,7-tricarboxylic acid]
Specific binding (SB) SB = TB − NSB (PSMA [1]): 4.1
Total binding (TB) (PSMA [1]): 9.2
Nonspecific binding (NSB) (PSMA [1]): 5.1
IC50 (PSMA [2]): 40.4 ± 18.3 nM

O=C(O)CC[C@H](NC(=O)N[C@@H](CCCCNC(=O)CCCCCNC(=O)CCc1ccc(O)c(CN(CCN(CC(=O)O)Cc2nc(CCC(=O)NCCCCCC(=O)NCCCC[C@H](NC(=O)N[C@@H](CCC(=O)O)C(=O)O)C(=O)O)ccc2O)CC(=O)O)n1)C(=O)O)C(=O)O [Compound 3, (3S,3′S,7S,7′S)-22,22′-(6,6′-((Ethane-1,2-diylbis((carboxymethyl)azanediyl))bis(methylene))bis(5-hydroxypyridine-6,2-diyl))bis(5,13,20-trioxo-4,6,12,19-tetraazadocosane-1,3,7-tricarboxylic acid)]
Specific binding (SB) SB = TB − NSB (PSMA [1]): 5.8
Total binding (TB) (PSMA [1]): 10.0
Nonspecific binding (NSB) (PSMA [1]): 4.2
IC50 (PSMA [2]): 132 ± 11 nM

O=C(O)CCc1ccc(O)c(CN(CCN(CC(=O)O)Cc2cc(CCC(=O)NCCCCCC(=O)NCCCC[C@H](NC(=O)N[C@@H](CCC(=O)O)C(=O)O)C(=O)O)ccc2O)CC(=O)O)n1 [Compound 4a, (3S,7S)-22-(3-(((2-(((6-(2-Carboxyethyl)-3-hydroxypyridin-2-yl)methyl)(carboxymethyl)amino)ethyl)(carboxymethyl)amino)methyl)-4-hydroxyphenyl)-5,13,20-trioxo-4,6,12,19-tetraazadocosane-1,3,7-tricarboxylic acid]
Specific binding (SB) SB = TB − NSB (PSMA [1]): 12.0
Total binding (TB) (PSMA [1]): 13.4
Nonspecific binding (NSB) (PSMA [1]): 1.4
IC50 (PSMA [2]): 67.4 ± 30.3 nM

O=C(O)CCc1ccc(O)c(CN(CCN(CC(=O)O)Cc2nc(CCC(=O)NCCCCCC(=O)NCCCC[C@H](NC(=O)N[C@@H](CCC(=O)O)C(=O)O)C(=O)O)ccc2O)CC(=O)O)c1 [Compound 4b, (3S,7S)-22-(6-(((2-((5-(2-Carboxyethyl)-2-hydroxybenzyl)(carboxymethyl)amino)ethyl) (carboxymethyl)amino)methyl)-5-hydroxypyridin-2-yl)-5,13,20-trioxo-4,6,12,19-tetraazadocosane-1,3,7-tricarboxylic acid]
Specific binding (SB) SB = TB − NSB (PSMA [1]): 8.8
Total binding (TB) (PSMA [1]): 10.3
Nonspecific binding (NSB) (PSMA [1]): 1.5
IC50 (PSMA [2]): 40.5 ± 20.5 nM

O=C(O)CC[C@H](NC(=O)N[C@@H](CCCCNC(=O)[C@H](Cc1ccccc1)NC(=O)COc1ccc(C[C@H](NC(=O)CNC(=O)CN2CCN(CC(=O)O)CCN(CC(=O)O)CCN(CC(=O)O)CC2)C(=O)O)cc1)C(=O)O)C(=O)O [Compound 5a, (4S,11S,15S)-4-Benzyl-1-(4-((S)-2-carboxy-2-(2-(2-(4,7,10-tris(carboxymethyl)-1,4,7,10-tetraazacyclododecan-1-yl)acetamido)acetamido)ethyl)phenoxy)-2,5,13-trioxo-3,6,12,14-tetraazaheptadecane-11,15,17-tricarboxylic acid.]
Specific binding (SB) SB = TB − NSB (PSMA [1]): 2.83
Total binding (TB) (PSMA [1]): 3.30
Nonspecific binding (NSB) (PSMA [1]): 0.47
IC50 (PSMA [2]): 36.1 ± 18.1 nM
